Assay results from US9044501B2, “Method of preventing and/or treating a neurodegenerative disease by administering an extract of Lycoris chejuensis and/or a compound isolated therefrom” (KOREA INSTITUTE OF SCIENCE AND TECHNOLOGY, priority 2009, dated 2015).

Key:
[1] = tested on: β-amyloid (Aβ42) production; assay: β-amyloid (Aβ42) production in APP-transfected HeLa cells, ELISA of culture solution; assay type: cell-based, human
Protocol: (§1) In order to examine the effect of the ethanol extract of Lycoris chejuensis obtained in Example <1-1> to inhibit β-amyloid production, HeLa cell line transfected with human amyloid precursor protein(APP) was cultured in DMEM culture medium (Cat. #11995, Gibco, USA). The cell line was supplied by Prof. Tae-Wan Kim, Department of Pathology, Columbia University Medical Center, New York, N.Y.10032, USA.
(§2) To the cell culture solution, the ethanol extract of Lycoris chejuensis (CJ) obtained in Example <1-1> was added, and then, it was cultured at 37° C. for 8 hours, and the amount of β-amyloid secreted in the culture solution was measured. More specifically, in order to quantify β-amyloid, two kinds of β-amyloid (Aβ40, Aβ42), Human β-Amyloid (Aβ40) and Human β-Amyloid (Aβ42) Colorimetric ELISA kits (#KHB3482 and #KHB3442; BioSource International, Inc., USA) were respectively used. The negative control means the case to which the extract of Lycoris chejuensis was not added.

[2] = tested on: viable cells; assay: MTT Cell Proliferation assay, effect on cell death; assay type: cell-based
Protocol: In order to measure the effect of an extraction or a fraction of Lycoris chejuensis on cell death, MTT Cell Proliferation assay (ATCC catalog #30-1010K, Manassas, USA), which is a conventionally known method, was used. In particular, a cell was treated with various concentrations of an ethanol extract (CJ) of Lycoris chejuensis and a butanol fraction (CJ-3) of Lycoris chejuensis for 8 hours, and then, viable cells were quantified.

[3] = tested on: β-amyloid (Aβ40) production; assay: β-amyloid (Aβ40) production in APP-transfected HeLa cells, ELISA of culture solution; assay type: cell-based, human
Protocol: as §1, §2

[4] = tested on: β-secretase product (sAPPβ) production; assay: β-secretase product (sAPPβ) production in APP-transfected HeLa cells, sAPPβ-Wild Type Assay Kit; assay type: cell-based; settings: Homo sapiens, read-out: Inhibition rate (%) of sAPPβ production compared to negative control
From the text: The cause of inhibition of β-amyloid production in the Experimental example <3> was examined in more detail. β-amyloid was produced from amyloid precursor(APP) by continuous actions of membrane protein hydrolytic enzyme, β-secretase (BACE1), and γ-secretase (Vassa and Citron, Neuron 27, 419-422, 2000). More specifically, β-secretase product(sAPPβ) is produced from amyloid precursor (APP) by the action of β-secretase, from which β-amyloid is produced by the action of γ-secretase.
Based on the above, it was identified whether or not dihydrolycoricidine obtained in Example <2-1> is capable of inhibiting the production of β-secretase product(sAPPβ). Specifically, the same procedure as Experimental example <3> was conducted except that sAPPβ-Wild Type Assay Kit (Immuno-Biological Laboratories Co., Ltd., Japan) was used for quantifying sAPPβ. The negative control means the case to which dihydrolycoricidine was not added.

[5] = tested on: β-amyloid (Aβ42) production; assay: β-amyloid (Aβ42) production in APP-transfected HeLa cells, ELISA of culture solution; assay type: cell-based, human; settings: for Inhibition rate (%) of Aβ42 production compared to that of negative control: 8 hours
[6] = tested on: β-amyloid (Aβ40) production; assay: β-amyloid (Aβ40) production in APP-transfected HeLa cells, ELISA of culture solution; assay type: cell-based, human; settings: for Inhibition rate (%) of Aβ40 production compared to that of negative control: 8 hours
[7] = 10, 5, 1, 0.5, 0.2, 0.1 and 0.05 μg/ml, 8 hours
[8] = Homo sapiens, HeLa, 8 h, read-out: Inhibition rate (%) of Aβ42 production compared to that of negative control
[9] = Homo sapiens, HeLa, 8 h, read-out: Inhibition rate (%) of Aβ40 production compared to that of negative control

`COC1C=C2C3CN(Cc4cc5c(cc43)OCO5)C2CC1O` (stereo not shown) [2-methoxypancracine] was tested, and the “β-amyloid (Aβ42) production (FIG. 7)” value [1, 7] was “inhibited by 2-methoxypancracine in a concentration dependent manner”, the cells died ([2]; 5 μg/ml (FIG. 11)) was ≤ 10% and the “β-amyloid (Aβ40) production (FIG. 7)” value [3, 7] was “inhibited by 2-methoxypancracine in a concentration dependent manner”.
With `O=C1NC2C(CC(O)C(O)C2O)c2cc3c(cc21)OCO3` (stereo not shown) [dihydrolycoricidine] the inhibition at 5 µM ([4]; 5 μM) was 6%, the inhibition at 10 µM ([4]; 10 μM) was 12% and the inhibition at 25 µM ([4]; 25 μM) was 28.9%. It also gave an inhibition at 50 µM ([4]; 50 μM) of 36.1%, an inhibition at 5 µM ([5]; Homo sapiens, HeLa, 5 μM, read-out: Inhibition rate (%) of Aβ42 production compared to that of negative control) of 58.8% and an inhibition at 10 µM ([5]; Homo sapiens, HeLa, 10 μM, read-out: Inhibition rate (%) of Aβ42 production compared to that of negative control) of 63.8%. For the same compound, the inhibition at 25 µM ([5]; Homo sapiens, HeLa, 25 μM, read-out: Inhibition rate (%) of Aβ42 production compared to that of negative control) was 88.8%, the inhibition at 50 µM ([5]; Homo sapiens, HeLa, 50 μM, read-out: Inhibition rate (%) of Aβ42 production compared to that of negative control) was 92.2% and the cells died ([2]; 50 μM) was ≤ 30%. For the same compound, the “Cell death (%) compared to negative control” value (“Cell death (%)” for short) ([2]; dihydrolycoricidine 5 μM) was 18.3%, the “Cell death (%)” value ([2]; dihydrolycoricidine 10 μM) was 23.3% and the “Cell death (%)” value ([2]; dihydrolycoricidine 25 μM) was 25.3%. For the same compound, the “Cell death (%)” value ([2]; dihydrolycoricidine 50 μM) was 28.1%, the inhibition at 5 µM ([6]; Homo sapiens, HeLa, 5 μM, read-out: Inhibition rate (%) of Aβ40 production compared to that of negative control) was 28.4% and the inhibition at 10 µM ([6]; Homo sapiens, HeLa, 10 μM, read-out: Inhibition rate (%) of Aβ40 production compared to that of negative control) was 56.1%. The inhibition at 25 µM ([6]; Homo sapiens, HeLa, 25 μM, read-out: Inhibition rate (%) of Aβ40 production compared to that of negative control) was 59.8% and the inhibition at 50 µM ([6]; Homo sapiens, HeLa, 50 μM, read-out: Inhibition rate (%) of Aβ40 production compared to that of negative control) was 63%.
`O=C1NC2C(=CC(O)C(O)C2O)c2cc3c(cc21)OCO3` (stereo not shown) [lycoricidine] gave an inhibition at 0.01 µg/mL [1, 8] of 16%, an inhibition at 0.1 µg/mL [1, 8] of 81.3% and an inhibition at 1 µg/mL [1, 8] of 97.5%. For the same compound, the inhibition at 10 µg/mL [1, 8] was 100%, the cells died ([2]; 10 μM (lycoricidine)) was ≤ 20% and the “Cell death (%)” value ([2]; 8 h, 0.01 μg/ml) was 4.9%. For the same compound, the “Cell death (%)” value ([2]; 8 h, 0.1 μg/ml) was 11.3%, the “Cell death (%)” value ([2]; 8 h, 1 μg/ml) was 19.0% and the “Cell death (%)” value ([2]; 8 h, 10 μg/ml) was 21.1%. For the same compound, the inhibition at 0.01 µg/mL [3, 9] was 3.3%, the inhibition at 0.1 µg/mL [3, 9] was 67% and the inhibition at 1 µg/mL [3, 9] was 92.8%. The inhibition at 10 µg/mL [3, 9] was 97.2%.
`O=C1NC2C(=CC(O)C(O)C2O)c2cc3c(c(O)c21)OCO3` (stereo not shown) [lycoricidinol] was tested, and the “Inhibition rate (%) of Aβ42 production compared to that of negative control” value (shortened to “Inhibition rate (%) of Aβ42 production”) ([5]; lycoricidinol 0.01 μg/ml) was 44.0%, the “Inhibition rate (%) of Aβ42 production” value ([5]; lycoricidinol 0.1 μg/ml) was 97.0% and the “Inhibition rate (%) of Aβ42 production” value ([5]; lycoricidinol 1 μg/ml) was 100%. The “Inhibition rate (%) of Aβ42 production” value ([5]; lycoricidinol 10 μg/ml) was 100%, the cells died ([2]; 10 μM (lycoricidinol)) was ≤ 20% and the “Cell death (%)” value ([2]; lycoricidinol 0.01 μg/ml) was 10.3%. The “Cell death (%)” value ([2]; lycoricidinol 0.1 μg/ml) was 11.6%, the “Cell death (%)” value ([2]; lycoricidinol 1 μg/ml) was 16.5% and the “Cell death (%)” value ([2]; lycoricidinol 10 μg/ml) was 19.3%. For the same compound, the “Inhibition rate (%) of Aβ40 production compared to that of negative control” value (“Inhibition rate (%) of Aβ40 production” below) ([6]; lycoricidinol 0.01 μg/ml) was 25.0%, the “Inhibition rate (%) of Aβ40 production” value ([6]; lycoricidinol 0.1 μg/ml) was 90.4% and the “Inhibition rate (%) of Aβ40 production” value ([6]; lycoricidinol 1 μg/ml) was 97.8%. The “Inhibition rate (%) of Aβ40 production” value ([6]; lycoricidinol 10 μg/ml) was 98.4%.
